Consider 60 compounds from patent US8435994B2, “Substituted [1,2,4]triazolo[4,3-alpha]quinoxalines as adenosine A2a receptor antagonists” (Merck Sharp & Dohme Corp., priority 2009, dated 2013).

Each structure is given as a SMILES string. pKi: −log10 of the molar value.

For the first assay, the target named is T1, Human A2a Adenosine Receptor (Homo sapiens, UniProt P29274).
T1 construct: purchased Receptor Biology, Inc., Beltsville, Md; RB-HA2a
T1 sequence (P29274 whole entry): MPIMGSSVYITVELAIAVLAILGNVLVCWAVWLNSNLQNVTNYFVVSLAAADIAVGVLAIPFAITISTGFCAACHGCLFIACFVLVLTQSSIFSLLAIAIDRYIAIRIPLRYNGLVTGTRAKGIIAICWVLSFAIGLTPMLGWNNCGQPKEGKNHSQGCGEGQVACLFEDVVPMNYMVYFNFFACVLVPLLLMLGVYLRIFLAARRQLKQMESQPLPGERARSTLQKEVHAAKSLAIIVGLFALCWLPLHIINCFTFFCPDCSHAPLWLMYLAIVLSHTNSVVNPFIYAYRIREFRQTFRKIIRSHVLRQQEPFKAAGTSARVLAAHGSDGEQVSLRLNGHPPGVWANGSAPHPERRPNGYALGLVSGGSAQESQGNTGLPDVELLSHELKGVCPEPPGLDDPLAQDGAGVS
Nature of the assay: Human Adenosine A2a Receptor Competition Binding Assay ([3H]-SCH 58261 displacement). The following applies: Table I; human A2a membranes, [3H]-SCH 58261 0.5 nM, Cheng-Prusoff; read-out: Activity (Ki). The protocol:
Human Adenosine A2a Receptor Competition Binding Assay Protocol
A2a: Human A2a Adenosine Receptor membranes, Catalog #RB-HA2a, Receptor Biology, Inc., Beltsville, Md. Dilute to 17 μg/100 μl in membrane dilution buffer (see below).
Membrane dilution buffer: Dulbecco's Phosphate Buffered Saline (Gibco/BRL)+ 10 mM MgCl2.
Compound Dilution Buffer: Dulbecco's Phosphate Buffered Saline (Gibco/BRL)+10 mM MgCl2 supplemented with 1.6 mg/ml methyl cellulose and 16% DMSO. Prepared fresh daily.
A2a: [3H]-SCH 58261 [7-(2-phenylethyl)-5-amino-2-(2-furyl)-pyrazolo-[4,3-e]-1,2,4-triazolo[1,5-c]pyrimidine], custom synthesis, Amersham Pharmacia Biotech, Piscataway, N.J. Stock is prepared at 1 nM in membrane dilution buffer. Final assay concentration is 0.5 nM. SCH-58261 is discussed in Zocchi et al., J Pharmacol Exp Ther. 276(2):398-404 (1996).
A2a: To determine non-specific binding, add 100 nM CGS 15923 (RBI, Natick, Mass.). Working stock is prepared at 400 nM in compound dilution buffer.
Prepare 1 mM stock solutions of compounds in 100% DMSO. Dilute in compound dilution buffer. Test at 10 concentrations ranging from 3 μM to 30 μM. Prepare working solutions at 4× final concentration in compound dilution buffer.
Perform assays in deep well 96 well plates. Total assay volume is 200 μl. Add 50 μl compound dilution buffer (total ligand binding) or 50 μl […] working solution (A2a non-specific binding) or 50 μl of drug working solution.
Usually pKi stands for the negative decadic logarithm of the Ki, by convention in mol/L. Turning to `Nc1nc2ccccc2n2c(=O)n(Cc3ccccc3C(=O)N3CCOCC3)nc12` [Compound 54], the pKi is 7.18.

With `CN(C)/C=N\c1ccccc1Cn1nc2c(N)nc3ccccc3n2c1=O` [Compound 39], the pKi is 8.09.

For the compound `COc1ccc2nc(N)c3nn(Cc4ccccc4)c(=O)n3c2c1` [Compound 43], the pKi was 7.92.

`Nc1ccc2c(c1)nc(N)c1nn(Cc3ccccc3)c(=O)n12` [Compound 33]: the pKi is 8.25.

For `CC(O)c1ccc2c(c1)nc(N)c1nn(Cc3ccccc3)c(=O)n12` (stereo not drawn) [Compound 52], the pKi is 7.26.

As to `Nc1nc2cc(CO)ccc2n2c(=O)n(Cc3ccccc3F)nc12` [Compound 49], the pKi is 7.42.

`Nc1ccccc1Cn1nc2c(N)nc3ccccc3n2c1=O` [Compound 5]: the pKi is 9.15.

Turning to `COC(=O)c1ccc2c(c1)nc(N)c1nn(Cc3ccccc3)c(=O)n12` [Compound 19], the pKi is 8.77.

As to `CC(=O)c1ccc2c(c1)nc(N)c1nn(Cc3ccccc3)c(=O)n12` [Compound 31], the pKi was 8.52.

`Nc1nc2ccc(F)cc2n2c(=O)n(Cc3ccc(F)cc3)nc12` [Compound 10]: the pKi was 9.00.

For `Cc1cccc2c1nc(N)c1nn(Cc3ccccc3)c(=O)n12` [Compound 3], the pKi is 9.22.

`Nc1nc2cc(C(F)(F)F)ccc2n2c(=O)n(Cc3c(F)cccc3F)nc12` [Compound 20]: the pKi is 8.74.

In the case of `Nc1nc2ccc(F)cc2n2c(=O)n(Cc3c(F)cccc3F)nc12` [Compound 7], the pKi is 9.15.

As for `COc1cccc(OC)c1Cn1nc2c(N)nc3ccccc3n2c1=O` [Compound 44], the pKi was 7.85.

As for `CS(=O)(=O)c1ccccc1Cn1nc2c(N)nc3ccccc3n2c1=O` [Compound 41], the pKi is 8.08.

Consider `Nc1nc2cc(C=O)ccc2n2c(=O)n(Cc3ccccc3)nc12` [Compound 25], for which the pKi is 8.59.

Regarding `Nc1nc2ccccc2n2c(=O)n(Cc3cc(F)cc(F)c3)nc12` [Compound 37], the pKi was 8.13.

`Nc1nc2ccc(F)cc2n2c(=O)n(Cc3ccccc3)nc12` [Compound 6]: the pKi is 9.05.

Consider `Nc1nc2ccccc2n2c(=O)n(Cc3c(Cl)cccc3Cl)nc12` [Compound 30], for which the pKi is 8.49.

On to `Nc1nc2cc(CO)ccc2n2c(=O)n(Cc3ccccc3)nc12` [Compound 40], for which the pKi is 8.07.

In the case of `N=c1n(Cc2ccccc2)nc2c(N)nc3ccccc3n12` [Compound 35], the pKi is 8.22.

In the case of `Nc1nc2cc(Cl)c(Cl)cc2n2c(=O)n(Cc3ccccc3)nc12` [Compound 16], the pKi is 8.85.

On to `COC(=O)c1ccc2nc(N)c3nn(Cc4ccccc4)c(=O)n3c2c1` [Compound 55], for which the negative logarithm of the Ki (pKi) was 7.15.

Turning to `CCCCNc1nc2ccc(F)cc2n2c(=O)n(Cc3ccccc3)nc12` [Compound 46], the pKi is 7.54.

For `Nc1nc2cc(F)c(F)cc2n2c(=O)n(Cc3c(F)cccc3F)nc12` [Compound 1], the pKi was 9.40.

Take `Nc1nc2ccc(F)cc2n2c(=O)n(Cc3c(F)cccc3C(F)(F)F)nc12` [Compound 22]: the negative-log Ki (pKi) was 8.66.

For the compound `Nc1nc2ccccc2n2c(=O)n(CC3CC3)nc12` [Compound 47], the pKi was 7.49.

Take `Nc1nc2ccccc2n2c(=O)n(Cc3ccccc3[N+](=O)[O-])nc12` [Compound 29]: the pKi is 8.49.

Take `Nc1nc2ccc(Cl)cc2n2c(=O)n(Cc3ccccc3)nc12` [Compound 28]: the pKi was 8.57.

For the compound `CC(C)(O)c1ccccc1Cn1nc2c(N)nc3ccccc3n2c1=O` [Compound 23], the pKi is 8.70.

Turning to `COC(=O)c1ccccc1Cn1nc2c(N)nc3ccccc3n2c1=O` [Compound 26], the pKi is 8.72.

With `Nc1nc2ccc(F)cc2n2c(=O)n(Cc3c(F)cc(F)cc3F)nc12` [Compound 12], the pKi was 9.00.

Regarding `CC(c1ccccc1)n1nc2c(N)nc3ccccc3n2c1=O` (stereo not drawn) [Compound 56], the pKi is 7.04.

On to `Nc1nc2ccc(CO)cc2n2c(=O)n(Cc3ccccc3)nc12` [Compound 53], for which the pKi was 7.22.

For the compound `CC(=O)Nc1ccccc1Cn1nc2c(N)nc3ccccc3n2c1=O` [Compound 38], the pKi is 8.13.

For the compound `Nc1nc2ccccc2n2c(=O)n(Cc3ccc(F)cc3)nc12` [Compound 18], the pKi was 8.72.

Take `Nc1nc2ccccc2n2c(=O)n(Cc3ccccc3CO)nc12` [Compound 11]: the pKi was 8.92.

Turning to `Nc1nc2ccccc2n2c(=O)n(Cc3c(F)cccc3C(F)(F)F)nc12` [Compound 27], the pKi was 8.60.

Turning to `Nc1nc2ccccc2n2c(=O)n(Cc3ccccc3C(F)(F)F)nc12` [Compound 21], the pKi is 8.74.

Take `Nc1nc2ccccc2n2c(=O)n(Cc3c(F)cccc3F)nc12` [Compound 9]: the pKi was 9.00.

In the case of `Nc1nc2ccccc2n2c(=O)n(Cc3cccc(F)c3F)nc12` [Compound 8], the pKi was 9.00.

As for `Nc1nc2cc(F)c(F)cc2n2c(=O)n(Cc3ccccc3)nc12` [Compound 17], the negative-log Ki (pKi) is 8.85.

Regarding `CN(C)C(=O)c1ccccc1Cn1nc2c(N)nc3ccccc3n2c1=O` [Compound 48], the pKi was 7.54.

On to `Nc1nc2ccc(C(F)(F)F)cc2n2c(=O)n(Cc3c(F)cccc3F)nc12` [Compound 42], for which the pKi is 7.99.

`Nc1nc2ccccc2n2c(=O)n(Cc3ccccc3)nc12` [Compound 2]: the pKi is 9.15.

Turning to `Nc1nc2ccccc2n2c(=O)n(Cc3c(F)cc(F)cc3F)nc12` [Compound 13], the pKi was 8.85.

Turning to `Nc1nc2cc(F)c(F)cc2n2c(=O)n(Cc3c(F)cc(F)cc3F)nc12` [Compound 24], the pKi is 8.55.

As for `N#C/N=c1\n(Cc2ccccc2)nc2c(N)nc3ccccc3n12` [Compound 32], the pKi is 8.33.

For `Nc1nc2ccccc2n2c(=O)n(CCc3ccccc3)nc12` [Compound 45], the pKi is 7.53.

`Nc1nc2cc([N+](=O)[O-])ccc2n2c(=O)n(Cc3ccccc3)nc12` [Compound 15]: the pKi was 8.85.

For the compound `COc1ccc2nc(N)c3nn(Cc4ccccc4C(F)(F)F)c(=O)n3c2c1` [Compound 51], the pKi was 7.29.

As for `N#Cc1ccccc1Cn1nc2c(N)nc3ccccc3n2c1=O` [Compound 14], the negative-log Ki (pKi) is 8.92.

On to `Cc1cccc2nc(N)c3nn(Cc4ccccc4)c(=O)n3c12` [Compound 36], for which the pKi is 8.15.

`Nc1nc2cccnc2n2c(=O)n(Cc3ccccc3)nc12` [Compound 50]: the pKi is 7.33.

The same assay, now with this note: Table II; human A2a membranes, [3H]-SCH 58261 0.5 nM, Cheng-Prusoff; read-out: Activity (Ki in nM).
By Ki is commonly meant a measure of affinity in units of concentration, obtained from inhibition or displacement. On to `Nc1nc2ccccc2n2cc(C(O)c3ccccc3)nc12` (stereo not drawn) [Compound 60], for which the Ki amounted to 29 nM.

For `Nc1nc2ccccc2n2cc(-c3ccccc3)nc12` [Compound 58], the Ki worked out at 57 nM.

Regarding `Nc1nc2ccccc2n2cc(C(=O)c3ccccc3)nc12` [Compound 59], the Ki was found to be 42 nM.

On to `Nc1nc2ccccc2n2cc(Cc3ccccc3)nc12` [Compound 57], for which the Ki came to 4.1 nM.

Still in this assay, the particulars now being: assay of Example 25; read-out: Ki value for the adenosine A2a receptor.
Take `Nc1nc2ccccc2n2nc(Cc3ccccc3)nc12` [Compound 61]: the pKi was 9.15.

For the compound `Nc1nc2ccccc2c2nc(Cc3ccccc3)cn12` [Compound 62], the pKi is 9.15.
